Reference: ChEMBL document CHEMBL4507282, “Data for DCP probe BI-1950” (2021)

Assays:
[1] = biological target: Phosphatidylinositol 4,5-bisphosphate 3-kinase catalytic subunit alpha isoform (Homo sapiens) (UniProt P42336); settings: Compound concentration 1000.0 nM
[2] = biological target: Dual specificity tyrosine-phosphorylation-regulated kinase 1A (Homo sapiens) (UniProt Q13627); settings: Compound concentration 1000.0 nM
[3] = biological target: Uncharacterized serine/threonine-protein kinase SBK3 (Homo sapiens) (UniProt P0C264); settings: Compound concentration 1000.0 nM
[4] = biological target: Wee1-like protein kinase (Homo sapiens) (UniProt P30291); settings: Compound concentration 1000.0 nM
[5] = test system: Hepatocyte growth factor receptor (Homo sapiens), P08581 [M1250T]; settings: Compound concentration 1000.0 nM
[6] = biological target: Tyrosine-protein kinase HCK (Homo sapiens) (UniProt P08631); settings: Compound concentration 1000.0 nM
[7] = biological target: AP2-associated protein kinase 1 (Homo sapiens) (UniProt Q2M2I8); settings: Compound concentration 1000.0 nM
[8] = biological target: Calcium/calmodulin-dependent protein kinase type 1D (Homo sapiens) (UniProt Q8IU85); settings: Compound concentration 1000.0 nM
[9] = biological target: Serine/threonine-protein kinase mTOR (Homo sapiens) (UniProt P42345); settings: Compound concentration 1000.0 nM
[10] = biological target: Activin receptor type-2A (Homo sapiens) (UniProt P27037); settings: Compound concentration 1000.0 nM
[11] = biological target: Myosin-IIIa (Homo sapiens) (UniProt Q8NEV4); settings: Compound concentration 1000.0 nM
[12] = biological target: Tyrosine-protein kinase receptor UFO (Homo sapiens) (UniProt P30530); settings: Compound concentration 1000.0 nM
Sequence of Tyrosine-protein kinase receptor UFO (Homo sapiens) (P30530 whole entry): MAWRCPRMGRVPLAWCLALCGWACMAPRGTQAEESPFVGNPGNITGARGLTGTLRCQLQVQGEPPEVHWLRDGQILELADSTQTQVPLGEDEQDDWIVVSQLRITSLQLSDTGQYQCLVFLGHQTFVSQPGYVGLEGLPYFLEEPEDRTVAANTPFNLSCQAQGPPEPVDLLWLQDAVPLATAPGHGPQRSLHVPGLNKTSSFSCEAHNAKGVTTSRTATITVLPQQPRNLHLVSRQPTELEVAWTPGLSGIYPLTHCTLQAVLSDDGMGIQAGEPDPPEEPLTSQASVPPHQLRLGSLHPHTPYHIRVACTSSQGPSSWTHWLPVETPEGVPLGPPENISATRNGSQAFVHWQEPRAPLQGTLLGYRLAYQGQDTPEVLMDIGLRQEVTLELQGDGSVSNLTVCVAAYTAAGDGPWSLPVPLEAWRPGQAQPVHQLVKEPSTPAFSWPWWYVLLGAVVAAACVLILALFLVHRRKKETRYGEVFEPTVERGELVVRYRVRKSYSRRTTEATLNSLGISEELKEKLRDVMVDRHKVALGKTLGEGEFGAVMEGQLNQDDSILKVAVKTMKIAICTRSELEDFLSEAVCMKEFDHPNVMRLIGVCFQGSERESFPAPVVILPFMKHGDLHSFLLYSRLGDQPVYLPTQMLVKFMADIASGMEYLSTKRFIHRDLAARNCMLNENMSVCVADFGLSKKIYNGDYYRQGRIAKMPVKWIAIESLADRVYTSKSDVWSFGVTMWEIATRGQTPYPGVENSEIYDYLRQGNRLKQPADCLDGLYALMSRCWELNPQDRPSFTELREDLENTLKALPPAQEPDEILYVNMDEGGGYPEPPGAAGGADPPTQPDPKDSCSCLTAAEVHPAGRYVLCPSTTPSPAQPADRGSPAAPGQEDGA

[13] = biological target: Receptor-type tyrosine-protein kinase FLT3 (Homo sapiens) (UniProt P36888); settings: Compound concentration 1000.0 nM
Sequence of Receptor-type tyrosine-protein kinase FLT3 (Homo sapiens) (P36888 whole entry): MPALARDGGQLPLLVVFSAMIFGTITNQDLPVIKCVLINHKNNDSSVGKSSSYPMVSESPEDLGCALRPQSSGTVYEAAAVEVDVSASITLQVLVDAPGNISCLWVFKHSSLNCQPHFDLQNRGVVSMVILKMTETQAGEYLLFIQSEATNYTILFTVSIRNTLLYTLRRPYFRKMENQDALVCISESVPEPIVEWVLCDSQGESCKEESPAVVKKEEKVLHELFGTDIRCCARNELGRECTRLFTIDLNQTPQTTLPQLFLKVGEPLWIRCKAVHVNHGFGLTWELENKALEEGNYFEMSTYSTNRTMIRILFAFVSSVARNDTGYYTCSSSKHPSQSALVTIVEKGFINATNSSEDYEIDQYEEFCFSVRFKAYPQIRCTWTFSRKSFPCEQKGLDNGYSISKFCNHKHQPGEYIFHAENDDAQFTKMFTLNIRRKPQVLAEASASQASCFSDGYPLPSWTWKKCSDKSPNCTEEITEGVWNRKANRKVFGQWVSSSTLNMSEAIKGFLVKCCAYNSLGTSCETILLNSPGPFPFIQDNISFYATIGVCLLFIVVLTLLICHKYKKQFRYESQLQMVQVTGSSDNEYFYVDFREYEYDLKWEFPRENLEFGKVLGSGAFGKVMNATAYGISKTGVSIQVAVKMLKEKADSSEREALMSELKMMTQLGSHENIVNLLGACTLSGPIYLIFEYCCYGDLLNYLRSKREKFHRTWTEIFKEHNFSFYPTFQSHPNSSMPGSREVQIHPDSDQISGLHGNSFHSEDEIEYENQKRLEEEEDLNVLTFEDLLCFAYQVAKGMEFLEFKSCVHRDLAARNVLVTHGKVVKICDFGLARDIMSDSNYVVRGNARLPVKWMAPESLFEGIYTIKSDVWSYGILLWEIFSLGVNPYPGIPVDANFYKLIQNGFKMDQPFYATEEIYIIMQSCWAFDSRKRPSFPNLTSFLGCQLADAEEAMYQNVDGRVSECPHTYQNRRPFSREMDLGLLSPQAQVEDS

[14] = biological target: Platelet-derived growth factor receptor alpha (Homo sapiens) (UniProt P16234); settings: Compound concentration 1000.0 nM
[15] = biological target: Serine/threonine-protein kinase Sgk2 (Homo sapiens) (UniProt Q9HBY8); settings: Compound concentration 1000.0 nM
[16] = biological target: Calcium/calmodulin-dependent protein kinase type 1B (Homo sapiens) (UniProt Q6P2M8); settings: Compound concentration 1000.0 nM
[17] = biological target: Atypical kinase COQ8A, mitochondrial (Homo sapiens) (UniProt Q8NI60); settings: Compound concentration 1000.0 nM
[18] = biological target: Ephrin type-A receptor 2 (Homo sapiens) (UniProt P29317); settings: Compound concentration 1000.0 nM
[19] = test system: Epidermal growth factor receptor (Homo sapiens), P00533 [UNDEFINED MUTATION]; settings: Compound concentration 1000.0 nM
[20] = biological target: Mitogen-activated protein kinase 14 (Homo sapiens) (UniProt Q16539); settings: Compound concentration 1000.0 nM
[21] = biological target: Serine/threonine-protein kinase MARK1 (Homo sapiens) (UniProt Q9P0L2); settings: Compound concentration 1000.0 nM
[22] = biological target: Serine/threonine-protein kinase Nek11 (Homo sapiens) (UniProt Q8NG66); settings: Compound concentration 1000.0 nM
[23] = test system: Mast/stem cell growth factor receptor Kit (Homo sapiens), P10721 [V559D,V654A]; settings: Compound concentration 1000.0 nM
[24] = biological target: Serine/threonine-protein kinase Nek3 (Homo sapiens) (UniProt P51956); settings: Compound concentration 1000.0 nM
[25] = biological target: Mitogen-activated protein kinase kinase kinase kinase 2 (Homo sapiens) (UniProt Q12851); settings: Compound concentration 1000.0 nM
[26] = biological target: Serine/threonine-protein kinase TNNI3K (Homo sapiens) (UniProt Q59H18); settings: Compound concentration 1000.0 nM
[27] = biological target: Serine/threonine-protein kinase TAO3 (Homo sapiens) (UniProt Q9H2K8); settings: Compound concentration 1000.0 nM
Sequence of Serine/threonine-protein kinase TAO3 (Homo sapiens) (Q9H2K8 whole entry): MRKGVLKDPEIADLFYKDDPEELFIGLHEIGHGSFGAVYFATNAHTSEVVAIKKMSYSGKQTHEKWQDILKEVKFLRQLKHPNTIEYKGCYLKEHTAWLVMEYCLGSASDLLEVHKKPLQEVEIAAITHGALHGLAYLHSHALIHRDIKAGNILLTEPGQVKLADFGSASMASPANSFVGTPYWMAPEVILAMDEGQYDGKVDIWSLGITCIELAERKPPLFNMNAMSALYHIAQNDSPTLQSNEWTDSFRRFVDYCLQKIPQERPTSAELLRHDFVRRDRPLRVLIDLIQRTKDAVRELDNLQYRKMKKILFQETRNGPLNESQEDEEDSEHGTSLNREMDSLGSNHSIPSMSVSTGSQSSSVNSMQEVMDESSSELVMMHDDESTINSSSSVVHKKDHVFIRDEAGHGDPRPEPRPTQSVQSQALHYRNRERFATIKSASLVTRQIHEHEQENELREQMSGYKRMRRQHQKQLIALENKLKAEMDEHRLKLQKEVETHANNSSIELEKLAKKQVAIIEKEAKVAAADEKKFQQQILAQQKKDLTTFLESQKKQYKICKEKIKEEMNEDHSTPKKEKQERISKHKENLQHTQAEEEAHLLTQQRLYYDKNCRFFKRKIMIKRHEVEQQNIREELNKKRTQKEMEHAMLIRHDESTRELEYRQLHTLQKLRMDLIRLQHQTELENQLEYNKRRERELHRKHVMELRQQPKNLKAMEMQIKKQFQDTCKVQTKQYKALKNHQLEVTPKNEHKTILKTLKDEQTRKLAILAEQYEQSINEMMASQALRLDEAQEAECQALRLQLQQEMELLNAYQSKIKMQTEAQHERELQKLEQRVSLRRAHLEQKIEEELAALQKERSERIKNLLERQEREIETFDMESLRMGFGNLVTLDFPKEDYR

[28] = biological target: Beta-2 adrenergic receptor (Homo sapiens) (UniProt P07550); settings: Compound concentration 10.0 uM
[29] = biological target: Serine/threonine-protein kinase 10 (Homo sapiens) (UniProt O94804); settings: Compound concentration 1000.0 nM
[30] = biological target: Serine/threonine-protein kinase 24 (Homo sapiens) (UniProt Q9Y6E0); settings: Compound concentration 1000.0 nM
[31] = biological target: Serine/threonine-protein kinase Chk1 (Homo sapiens) (UniProt O14757); settings: Compound concentration 1000.0 nM
[32] = biological target: Non-receptor tyrosine-protein kinase TYK2 (Homo sapiens) (UniProt P29597); settings: Compound concentration 1000.0 nM
[33] = biological target: Serine/threonine-protein kinase PAK 5 (Homo sapiens) (UniProt Q9P286); settings: Compound concentration 1000.0 nM
[34] = biological target: Protein kinase C iota type (Homo sapiens) (UniProt P41743); settings: Compound concentration 1000.0 nM
[35] = biological target: Serine/threonine-protein kinase BRSK2 (Homo sapiens) (UniProt Q8IWQ3); settings: Compound concentration 1000.0 nM
[36] = biological target: Serine/threonine-protein kinase pim-1 (Homo sapiens) (UniProt P11309); settings: Compound concentration 1000.0 nM
[37] = biological target: NT-3 growth factor receptor (Homo sapiens) (UniProt Q16288); settings: Compound concentration 1000.0 nM
Sequence of NT-3 growth factor receptor (Homo sapiens) (Q16288 32-839 limits assumed): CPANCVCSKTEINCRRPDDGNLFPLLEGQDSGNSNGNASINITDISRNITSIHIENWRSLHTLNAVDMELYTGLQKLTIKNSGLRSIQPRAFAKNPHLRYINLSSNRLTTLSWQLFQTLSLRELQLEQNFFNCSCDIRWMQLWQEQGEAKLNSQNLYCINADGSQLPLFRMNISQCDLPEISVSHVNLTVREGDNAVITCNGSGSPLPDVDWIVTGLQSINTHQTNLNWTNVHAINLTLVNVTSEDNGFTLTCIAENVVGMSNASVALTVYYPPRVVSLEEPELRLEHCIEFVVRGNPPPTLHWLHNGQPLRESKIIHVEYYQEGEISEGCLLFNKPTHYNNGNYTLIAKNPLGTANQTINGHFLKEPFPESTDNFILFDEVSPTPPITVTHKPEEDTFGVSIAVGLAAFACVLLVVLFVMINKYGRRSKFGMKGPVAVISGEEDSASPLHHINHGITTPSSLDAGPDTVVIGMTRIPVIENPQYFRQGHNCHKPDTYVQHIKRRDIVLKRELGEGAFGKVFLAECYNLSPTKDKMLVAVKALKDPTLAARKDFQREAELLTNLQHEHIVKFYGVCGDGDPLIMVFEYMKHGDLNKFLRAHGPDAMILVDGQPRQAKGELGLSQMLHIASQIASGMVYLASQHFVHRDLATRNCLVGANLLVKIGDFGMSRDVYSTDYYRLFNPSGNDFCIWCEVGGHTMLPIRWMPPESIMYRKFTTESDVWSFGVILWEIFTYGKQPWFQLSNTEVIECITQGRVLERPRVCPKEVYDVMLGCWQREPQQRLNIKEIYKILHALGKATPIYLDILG

[38] = biological target: Interleukin-1 receptor-associated kinase 3 (Homo sapiens) (UniProt Q9Y616); settings: Compound concentration 1000.0 nM
[39] = biological target: Proto-oncogene tyrosine-protein kinase receptor Ret (Homo sapiens) (UniProt P07949); settings: Compound concentration 1000.0 nM
[40] = biological target: Serine/threonine-protein kinase 35 (Homo sapiens) (UniProt Q8TDR2); settings: Compound concentration 1000.0 nM
[41] = biological target: Receptor-type tyrosine-protein kinase FLT3 (Homo sapiens) (UniProt P36888); settings: Compound concentration 1000.0 nM; remark: listed apart in the source
[42] = biological target: Mitogen-activated protein kinase kinase kinase 3 (Homo sapiens) (UniProt Q99759); settings: Compound concentration 1000.0 nM
[43] = biological target: Mitogen-activated protein kinase 11 (Homo sapiens) (UniProt Q15759); settings: Compound concentration 1000.0 nM
[44] = biological target: Megakaryocyte-associated tyrosine-protein kinase (Homo sapiens) (UniProt P42679); settings: Compound concentration 1000.0 nM
[45] = biological target: Mitogen-activated protein kinase kinase kinase 6 (Homo sapiens) (UniProt O95382); settings: Compound concentration 1000.0 nM
Sequence of Mitogen-activated protein kinase kinase kinase 6 (Homo sapiens) (O95382 whole entry): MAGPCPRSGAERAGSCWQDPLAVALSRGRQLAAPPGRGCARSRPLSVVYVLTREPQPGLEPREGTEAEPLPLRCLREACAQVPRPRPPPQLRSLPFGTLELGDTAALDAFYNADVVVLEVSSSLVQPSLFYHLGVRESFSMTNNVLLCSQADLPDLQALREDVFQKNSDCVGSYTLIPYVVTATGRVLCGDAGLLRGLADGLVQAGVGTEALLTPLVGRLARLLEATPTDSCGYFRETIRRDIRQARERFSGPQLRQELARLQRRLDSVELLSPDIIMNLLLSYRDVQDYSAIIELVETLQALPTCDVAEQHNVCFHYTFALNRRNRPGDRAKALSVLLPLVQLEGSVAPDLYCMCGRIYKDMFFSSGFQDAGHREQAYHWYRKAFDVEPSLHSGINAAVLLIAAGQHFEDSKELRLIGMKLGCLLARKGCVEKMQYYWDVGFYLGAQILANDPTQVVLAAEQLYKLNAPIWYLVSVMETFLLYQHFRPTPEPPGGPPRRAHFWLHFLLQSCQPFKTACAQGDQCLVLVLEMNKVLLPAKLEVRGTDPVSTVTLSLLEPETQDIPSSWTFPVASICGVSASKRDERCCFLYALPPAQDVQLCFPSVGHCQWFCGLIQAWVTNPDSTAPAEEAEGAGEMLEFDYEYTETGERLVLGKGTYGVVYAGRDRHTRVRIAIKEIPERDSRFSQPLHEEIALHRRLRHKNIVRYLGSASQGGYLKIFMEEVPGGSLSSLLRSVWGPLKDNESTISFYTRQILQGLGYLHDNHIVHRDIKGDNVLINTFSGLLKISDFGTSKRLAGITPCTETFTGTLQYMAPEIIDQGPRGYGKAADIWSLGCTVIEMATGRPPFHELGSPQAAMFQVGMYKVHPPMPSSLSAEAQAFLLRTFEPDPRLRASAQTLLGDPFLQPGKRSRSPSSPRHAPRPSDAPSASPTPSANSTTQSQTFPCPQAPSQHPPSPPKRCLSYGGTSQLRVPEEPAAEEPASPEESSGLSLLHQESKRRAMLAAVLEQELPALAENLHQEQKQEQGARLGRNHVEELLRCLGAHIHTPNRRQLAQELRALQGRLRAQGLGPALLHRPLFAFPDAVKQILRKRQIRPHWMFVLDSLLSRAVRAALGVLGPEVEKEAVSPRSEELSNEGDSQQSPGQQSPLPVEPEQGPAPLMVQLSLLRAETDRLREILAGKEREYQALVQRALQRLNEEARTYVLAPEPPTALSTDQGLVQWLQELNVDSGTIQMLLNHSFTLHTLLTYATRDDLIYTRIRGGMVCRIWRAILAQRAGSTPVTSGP

C[C@H](NC(=O)c1cnc2n1[C@](C)(Cc1ccc(C#N)cc1)C(=O)N2c1cc(Cl)c(F)c(Cl)c1)C(=O)NC1(c2ccccn2)CC1 [BI 1950]
inactive: residual activity [1] 100% | residual activity [2] 100% | residual activity [3] 100% | residual activity [4] 100% | residual activity [5] 100% | residual activity [6] 100% | residual activity [7] 100% | residual activity [8] 99% | residual activity [9] 96% | residual activity [10] 92% | residual activity [11] 100% | residual activity [12] 100% | residual activity [13] 100% | residual activity [14] 100% | residual activity [15] 94% | residual activity [16] 83% | residual activity [17] 100% | residual activity [18] 75% | residual activity [19] 100% | residual activity [20] 100% | residual activity [21] 100% | residual activity [22] 100% | residual activity [23] 100% | residual activity [24] 100% | residual activity [25] 100% | residual activity [26] 65% | residual activity [27] 88% | inhibition [28] -9.72% | residual activity [29] 100% | residual activity [30] 100% | residual activity [31] 100% | residual activity [32] 100% | residual activity [33] 100% | residual activity [34] 100% | residual activity [35] 100% | residual activity [36] 100% | residual activity [37] 100% | residual activity [38] 100% | residual activity [39] 100% | residual activity [40] 100% | residual activity [41] 100% | residual activity [42] 100% | residual activity [43] 100% | residual activity [44] 100% | residual activity [45] 100%

C[C@@]1(Cc2ccc(C#N)cc2)C(=O)N(c2cc(Cl)cc(Cl)c2)c2ncc(C(=O)NC3(c4nc(C5CCC5)no4)CC3)n21 [BI 9446]
inactive: residual activity [1] 87% | residual activity [2] 99% | residual activity [3] 100% | residual activity [4] 100% | residual activity [5] 100% | residual activity [6] 100% | residual activity [7] 100% | residual activity [8] 100% | residual activity [9] 91% | residual activity [10] 92% | residual activity [11] 100% | residual activity [12] 100% | residual activity [13] 98% | residual activity [14] 100% | residual activity [15] 100% | residual activity [16] 65% | residual activity [17] 90% | residual activity [18] 56% | residual activity [19] 100% | residual activity [20] 100% | residual activity [21] 100% | residual activity [22] 100% | residual activity [23] 85% | residual activity [24] 100% | residual activity [25] 100% | residual activity [26] 72% | residual activity [27] 91% | inhibition [28] -7.08% | residual activity [29] 100% | residual activity [30] 93% | residual activity [31] 90% | residual activity [32] 100% | residual activity [33] 100% | residual activity [34] 87% | residual activity [35] 100% | residual activity [36] 100% | residual activity [37] 100% | residual activity [38] 100% | residual activity [39] 100% | residual activity [40] 100% | residual activity [41] 100% | residual activity [42] 100% | residual activity [43] 100% | residual activity [44] 100% | residual activity [45] 82%
